Measurements taken from patent publication US20210380556A1, “HETEROARYLAZOLE COMPOUND AND PEST CONTROL AGENT” (Nippon Soda Co., Ltd., priority 2018, published 2021).

Key:
[1] = tested on: Mythimna separata; test: Test Example 1: efficacy on Mythimna separata (treated artificial feed); format: in vivo; conditions: 1 μl of emulsion (I) (5% active ingredient) in 0.8 g artificial feed; second instar larvae; 25° C.; fifth day
Description: (§1) 5 parts of the heteroaryl azole compound of the present invention, 93.6 parts of dimethylformamide, and 1.4 parts of polyoxyethylene alkyl aryl ether were mixed and dissolved to prepare emulsion (I) containing 5% of the active ingredient.
For a control, 98.5 parts of dimethylformamide and 1.5 parts of polyoxyethylene alkyl aryl ether were mixed and dissolved to prepare emulsion (II).
(§2) Insecticidal rate (%)=(The number of dead insects/The number of tested insects)×100
0.8 g of commercially available artificial feed (Insecta LFS, manufactured by Nosan Corp.) and 1 μl of the emulsion (I) were well mixed to obtain test feed.
A plastic test container (capacity: 1.4 ml) was packed with 0.2 g of the test feed per treatment plot. Then, two second instar larvae of Mythimna separata were inoculated to each treatment plot. A plastic lid was put on the test container so as to prevent escape of the second instar larvae of Mythimna separata. The container was placed in a thermostat chamber of 25° C. On the fifth day, the insecticidal rate and the food intake were examined. The test was conducted in duplicate.
The insecticidal rate and the food intake of a control plot were examined in the same way as in Test Example 1 except that the emulsion (I) was changed to the emulsion (II).

[2] = tested on: Musca domestica; test: Test Example 9: efficacy on Musca domestica (treated sugar cube); format: in vivo; conditions: 100 ppm per g of a cube of sugar; female adults; 25° C.; after hours (number not given)
Protocol: as §2
The compound of the present invention was diluted with acetone and added dropwise at 100 ppm per g of a cube of sugar. The cube of sugar was placed in a plastic cup. Ten female adults of Musca domestica were released, and a lid was put on the plastic cup. The plastic cup was stored at 25° C. Life and death were determined after hours from the release of the insects, and the insecticidal rate was calculated. The test was conducted in duplicate.

[3] = tested on: Plutella xylostella; test: Test Example 3: efficacy on Plutella xylostella (cabbage leaf dip); format: in vivo; conditions: foliar, 72 h, cabbage leaves dipped 30 seconds, second instar larvae, after 3 days, read-out: insecticidal rate
Protocol: as §1, §2
The emulsion (I) was diluted with water such that the concentration of the compound of the present invention was 125 ppm. Cabbage leaves were dipped in the dilution for 30 seconds. The resulting cabbage leaves were placed in a petri dish. Five second instar larvae of Plutella xylostella were released thereto. The petri dish was placed in a thermostat chamber having a temperature of 25° C. and a humidity of 60%. Life and death were determined after 3 days from the release of the insects, and the insecticidal rate was calculated. The test was conducted in duplicate.

| Structure (SMILES) | insecticidal rate or food intake as compared with the control plot [1] | pest or weed control at 125 ppm [3] | other results |
| --- | --- | --- | --- |
| CCS(=O)(=O)c1cc(-c2ncccn2)cnc1-c1ncc(C(F)(F)C(F)(F)C(F)(F)C(F)(F)F)n1C [b-4] | insecticidal rate of 100% for Mythimna separata or a food intake of 10% or less |  | insecticidal rate [2]: ≥ 80% |
| CCS(=O)(=O)c1cc(C2CC2)cnc1-c1nnc(C(F)(F)C(F)(F)C(F)(F)C(F)(F)F)n1C [c-4] |  | ≥ 80% |  |
| CCS(=O)(=O)c1cc(Br)cnc1-c1nnc(C(F)(F)C(F)(F)C(F)(F)C(F)(F)F)n1C |  |  | melting point: 74 to 76 °C |
| CCS(=O)(=O)c1cnc(-c2ncn(C)n2)nc1-c1ncc(C(F)(F)C(F)(F)C(F)(F)F)n1C [a-1] | insecticidal rate of 100% for Mythimna separata or a food intake of 10% or less | ≥ 80% |  |
| CCS(=O)(=O)c1cnc(-c2ncnn2C)nc1-c1ncc(C(F)(F)C(F)(F)C(F)(F)C(F)(F)F)n1C [a-10] |  | ≥ 80% |  |
| CCS(=O)(=O)c1cc(/C=N/OCC(F)(F)C(F)(F)F)cnc1-c1ncc(C(F)C(F)(F)C(F)(F)F)n1C (stereo not shown) [c-1] | insecticidal rate of 100% for Mythimna separata or a food intake of 10% or less | ≥ 80% |  |
| CCS(=O)(=O)c1cc(-c2ncccn2)cnc1-c1nnc(C(F)(F)C(F)(F)C(F)(F)C(F)(F)F)n1C [c-5] | insecticidal rate of 100% for Mythimna separata or a food intake of 10% or less | ≥ 80% |  |
| CCS(=O)(=O)c1cnc(-n2ncnc2N)nc1-c1ncc(C(F)(F)C(F)(F)C(F)(F)C(F)(F)F)n1C [a-6] | insecticidal rate of 100% for Mythimna separata or a food intake of 10% or less | ≥ 80% |  |
| CCS(=O)(=O)c1cc(-c2ccccn2)cnc1-c1ncc(C(F)C(F)(F)C(F)(F)F)n1C (stereo not shown) [b-27] | insecticidal rate of 100% for Mythimna separata or a food intake of 10% or less |  |  |
| CCS(=O)(=O)c1cc(-c2ccccn2)cnc1-c1ncc(C(Cl)C(F)(C(F)(F)F)C(F)(F)F)n1C (stereo not shown) [b-44] | insecticidal rate of 100% for Mythimna separata or a food intake of 10% or less |  |  |
| CCS(=O)(=O)c1cnc(-n2cnc(N)n2)nc1-c1ncc(C(F)(F)C(F)(F)C(F)(F)C(F)(F)F)n1C |  |  | melting point: 219 to 221 °C |
| CCS(=O)(=O)c1cc(C2CC2)cnc1-c1ncc(C(Cl)C(F)(C(F)(F)F)C(F)(F)F)n1C (stereo not shown) [b-53] | insecticidal rate of 100% for Mythimna separata or a food intake of 10% or less |  |  |
| CCS(=O)(=O)c1cc(-c2ccccc2F)cnc1-c1ncc(C(F)(F)C(F)(F)C(F)(F)F)n1C [b-58] | insecticidal rate of 100% for Mythimna separata or a food intake of 10% or less |  |  |
| CCS(=O)(=O)c1cc(OCC(F)(F)C(F)(F)F)cnc1-c1ncc(C(F)C(F)(C(F)(F)F)C(F)(F)F)n1C (stereo not shown) [b-68] | insecticidal rate of 100% for Mythimna separata or a food intake of 10% or less |  |  |
| CCS(=O)(=O)c1cnc(-c2ncn(C)n2)nc1-c1ncc(C(F)(F)C(F)(F)C(F)(F)C(F)(F)F)n1C [a-2, 5-(ethylsulfonyl)-2-(1-methyl-1H-1,2,4-triazol-3-yl)-4-(1-methyl-5-(perfluorobutyl)-1H-imidazol-2-yl)pyrimidine] | insecticidal rate of 100% for Mythimna separata or a food intake of 10% or less | ≥ 80% |  |
| CCS(=O)(=O)c1ccc(-n2cncn2)nc1-c1ncc(C(F)(F)C(F)(F)F)n1C [b-17] | insecticidal rate of 100% for Mythimna separata or a food intake of 10% or less |  |  |
| CCS(=O)(=O)c1cc(C2CC2)c[n+]([O-])c1-c1ncc(C(F)C(F)(C(F)(F)F)C(F)(F)F)n1C (stereo not shown) [c-8] | insecticidal rate of 100% for Mythimna separata or a food intake of 10% or less |  |  |
| CCS(=O)(=O)c1cnc(-c2ncccn2)nc1-c1ncc(C(F)(F)C(F)(F)C(F)(F)C(F)(F)F)n1C [a-4] |  | ≥ 80% |  |
| CCS(=O)(=O)c1cc(C2CC2)cnc1-c1ncc(C(F)C(F)(F)C(F)(F)C(F)(F)C(F)(F)F)n1C (stereo not shown) [b-63] | insecticidal rate of 100% for Mythimna separata or a food intake of 10% or less |  |  |
| CCS(=O)(=O)c1cc(-c2ncccn2)cnc1-c1ncc(C(F)(F)C(F)(F)C(F)(F)F)n1C [b-19, 2-(5-(ethylsulfonyl)-6-(1-methyl-5-(perfluoropropyl)-1H-imidazol-2-yl)pyridin-3-yl)pyrimidine] |  | ≥ 80% |  |
| CCS(=O)(=O)c1cc(-c2ncccn2)cnc1-c1ncc(C(F)(F)C(F)(F)F)n1C [b-22] | insecticidal rate of 100% for Mythimna separata or a food intake of 10% or less |  |  |
| CCS(=O)(=O)c1cc(-c2ccccn2)cnc1-c1ncc(C(F)(F)C(F)(F)C(F)(F)F)n1C [b-29] | insecticidal rate of 100% for Mythimna separata or a food intake of 10% or less |  |  |
